In ChEMBL document CHEMBL5724914, “Linking interpersonal differences in gut microbiota composition and drug biotransformation activity” (2024):

Assays:
[1] = The drug is tested on Z-014 corresponding to rat gut metagenome with ENA study accession number: PRJEB37062 and ENA sample accession number: ERS12561814 for biotransformation under anaerobic condition. The drug concentrations were measured over 9 timepoints collected between 0 and 24 hours of incubation by liquid-chromatography-coupled mass spectrometry (LC–MS); conditions: 2 µM
[2] = The drug is tested on WLS-007 corresponding to human gut metagenome with ENA study accession number: PRJEB37062 and ENA sample accession number: ERS12561742 for biotransformation under anaerobic condition. The drug concentrations were measured over 9 timepoints collected between 0 and 24 hours of incubation by liquid-chromatography-coupled mass spectrometry (LC–MS); conditions: 2 µM
[3] = human gut metagenome, 24 h, 2 µM
[4] = human gut metagenome, 24 h, 2 µM; remark: listed apart in the source
[5] = The drug is tested on Z-019 corresponding to rat gut metagenome with ENA study accession number: PRJEB37062 and ENA sample accession number: ERS12561818 for biotransformation under anaerobic condition. The drug concentrations were measured over 9 timepoints collected between 0 and 24 hours of incubation by liquid-chromatography-coupled mass spectrometry (LC–MS); conditions: 2 µM
[6] = The drug is tested on Z-016 corresponding to mouse gut metagenome with ENA study accession number: PRJEB37062 and ENA sample accession number: ERS12561815 for biotransformation under anaerobic condition. The drug concentrations were measured over 9 timepoints collected between 0 and 24 hours of incubation by liquid-chromatography-coupled mass spectrometry (LC–MS); conditions: 2 µM
[7] = human gut metagenome, 24 h, 2 µM; remark: listed apart in the source
[8] = The drug is tested on Z-008 corresponding to metagenome with ENA study accession number: PRJEB37062 and ENA sample accession number: ERS12561808 for biotransformation under anaerobic condition. The drug concentrations were measured over 9 timepoints collected between 0 and 24 hours of incubation by liquid-chromatography-coupled mass spectrometry (LC–MS); conditions: 2 µM
[9] = human gut metagenome, 24 h, 2 µM; remark: listed apart in the source
[10] = human gut metagenome, 24 h, 2 µM; remark: listed apart in the source
[11] = The drug is tested on Z-029 corresponding to rat gut metagenome with ENA study accession number: PRJEB37062 and ENA sample accession number: ERS12561828 for biotransformation under anaerobic condition. The drug concentrations were measured over 9 timepoints collected between 0 and 24 hours of incubation by liquid-chromatography-coupled mass spectrometry (LC–MS); conditions: 2 µM
[12] = The drug is tested on Z-001 corresponding to mouse gut metagenome with ENA study accession number: PRJEB37062 and ENA sample accession number: ERS12561801 for biotransformation under anaerobic condition. The drug concentrations were measured over 9 timepoints collected between 0 and 24 hours of incubation by liquid-chromatography-coupled mass spectrometry (LC–MS); conditions: 2 µM
[13] = human gut metagenome, 24 h, 2 µM; remark: listed apart in the source
[14] = The drug is tested on Z-028 corresponding to mouse gut metagenome with ENA study accession number: PRJEB37062 and ENA sample accession number: ERS12561827 for biotransformation under anaerobic condition. The drug concentrations were measured over 9 timepoints collected between 0 and 24 hours of incubation by liquid-chromatography-coupled mass spectrometry (LC–MS); conditions: 2 µM
[15] = The drug is tested on WLS-010 corresponding to human gut metagenome with ENA study accession number: PRJEB37062 and ENA sample accession number: ERS12561743 for biotransformation under anaerobic condition. The drug concentrations were measured over 9 timepoints collected between 0 and 24 hours of incubation by liquid-chromatography-coupled mass spectrometry (LC–MS); conditions: 2 µM
[16] = human gut metagenome, 24 h, 2 µM; remark: listed apart in the source
[17] = human gut metagenome, 24 h, 2 µM; remark: listed apart in the source
[18] = The drug is tested on Z-017 corresponding to mouse gut metagenome with ENA study accession number: PRJEB37062 and ENA sample accession number: ERS12561816 for biotransformation under anaerobic condition. The drug concentrations were measured over 9 timepoints collected between 0 and 24 hours of incubation by liquid-chromatography-coupled mass spectrometry (LC–MS); conditions: 2 µM
[19] = The drug is tested on Z-026 corresponding to metagenome with ENA study accession number: PRJEB37062 and ENA sample accession number: ERS12561825 for biotransformation under anaerobic condition. The drug concentrations were measured over 9 timepoints collected between 0 and 24 hours of incubation by liquid-chromatography-coupled mass spectrometry (LC–MS); conditions: 2 µM
[20] = The drug is tested on WLS-310 corresponding to human gut metagenome with ENA study accession number: PRJEB37062 and ENA sample accession number: ERS12561785 for biotransformation under anaerobic condition. The drug concentrations were measured over 9 timepoints collected between 0 and 24 hours of incubation by liquid-chromatography-coupled mass spectrometry (LC–MS); conditions: 2 µM
Further: call rule not given here.

| SMILES | Bacterial Biotransformation [1] | Bacterial Biotransformation [2] | Bacterial Biotransformation [3] | Bacterial Biotransformation [4] | Bacterial Biotransformation [5] | Bacterial Biotransformation [6] | Bacterial Biotransformation [7] | Bacterial Biotransformation [8] | Bacterial Biotransformation [9] | Bacterial Biotransformation [10] | Bacterial Biotransformation [11] | Bacterial Biotransformation [12] | Bacterial Biotransformation [13] | Bacterial Biotransformation [14] | Bacterial Biotransformation [15] | Bacterial Biotransformation [16] | Bacterial Biotransformation [17] | Bacterial Biotransformation [18] | Bacterial Biotransformation [19] | Bacterial Biotransformation [20] |
| --- | --- | --- | --- | --- | --- | --- | --- | --- | --- | --- | --- | --- | --- | --- | --- | --- | --- | --- | --- | --- |
| O=C(O)CCc1nc(-c2ccccc2)c(-c2ccccc2)o1 [OXAPROZIN] | Compound NOT metabolized | Compound metabolized | Compound metabolized | Compound metabolized | Compound NOT metabolized | Compound metabolized | Compound metabolized | Compound NOT metabolized | Compound metabolized | Compound metabolized | Compound NOT metabolized | Compound NOT metabolized | Compound metabolized | Compound NOT metabolized | Compound metabolized | Compound metabolized | Compound metabolized | Compound NOT metabolized | Compound NOT metabolized | Compound metabolized |
| CC(C)(C)NC[C@H](O)COc1ccccc1C1CCCC1.CC(C)(C)NC[C@H](O)COc1ccccc1C1CCCC1.O=S(=O)(O)O [PENBUTOLOL SULFATE] | Compound NOT metabolized | Compound metabolized | Compound metabolized | Compound metabolized | Compound NOT metabolized | Compound NOT metabolized | Compound NOT metabolized | Compound NOT metabolized | Compound metabolized | Compound NOT metabolized | Compound NOT metabolized | Compound metabolized | Compound metabolized | Compound NOT metabolized | Compound metabolized | Compound metabolized | Compound metabolized | Compound NOT metabolized | Compound NOT metabolized | Compound metabolized |
| CCOc1ccc(NC(C)=O)cc1 [PHENACETIN] | Compound NOT metabolized | Compound NOT metabolized | Compound NOT metabolized | Compound NOT metabolized | Compound NOT metabolized | Compound NOT metabolized | Compound NOT metabolized | Compound NOT metabolized | Compound NOT metabolized | Compound NOT metabolized | Compound NOT metabolized | Compound NOT metabolized | Compound NOT metabolized | Compound NOT metabolized | Compound NOT metabolized | Compound NOT metabolized | Compound NOT metabolized | Compound NOT metabolized | Compound NOT metabolized | Compound NOT metabolized |
| Nc1ccc(/N=N/c2ccccc2)c(N)n1 [PHENAZOPYRIDINE] | Compound metabolized | Compound metabolized | Compound metabolized | Compound metabolized | Compound metabolized | Compound metabolized | Compound metabolized | Compound metabolized | Compound metabolized | Compound metabolized | Compound metabolized | Compound metabolized | Compound metabolized | Compound metabolized | Compound metabolized | Compound metabolized | Compound metabolized | Compound metabolized | Compound metabolized | Compound metabolized |
| CC(C(=O)O)c1ccc2c(c1)Cc1cccnc1O2 (stereo not given) [PRANOPROFEN] | Compound NOT metabolized | Compound metabolized | Compound metabolized | Compound metabolized | Compound NOT metabolized | Compound metabolized | Compound metabolized | Compound metabolized | Compound metabolized | Compound metabolized | Compound metabolized | Compound metabolized | Compound metabolized | Compound metabolized | Compound metabolized | Compound metabolized | Compound metabolized | Compound NOT metabolized | Compound NOT metabolized | Compound metabolized |
| CCc1nc(N)nc(N)c1-c1ccc(Cl)cc1 [PYRIMETHAMINE] | Compound NOT metabolized | Compound metabolized | Compound NOT metabolized | Compound NOT metabolized | Compound NOT metabolized | Compound NOT metabolized | Compound NOT metabolized | Compound NOT metabolized | Compound NOT metabolized | Compound NOT metabolized | Compound NOT metabolized | Compound NOT metabolized | Compound NOT metabolized | Compound NOT metabolized | Compound NOT metabolized | Compound metabolized | Compound NOT metabolized | Compound NOT metabolized | Compound NOT metabolized | Compound NOT metabolized |
